Data on 23 compounds can be found in patent US12091425B2 (AMGEN INC., priority 2016, dated 2024).

For orientation: IC50 means the concentration at which inhibition is half-maximal.

In test [1] the target is T1, Mcl-1/Bim interaction, recombinant human Mcl-1 (171-327) (Homo sapiens, UniProt Q07820).
T1 construct: made in house
The experiment in a line: Cell free Mcl-1: Bim Affinity Assay (Mcl-1 HTRF). Type of test: binding. Summed up: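 TR-FRET competition assay with biotinylated human Bim peptide (residues 51-76); reaction plates incubated overnight before reading. IC50 values came from duplicate data fitted to a four-parameter sigmoidal competition curve.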
For orientation: TR-FRET usually uses a lanthanide donor and a delayed reading to cut background.

For test [2], the system named is OPM-2 human multiple myeloma cell line. The test can be described thus: Cell Viability Assay (OPM-2 10 FBS). Type of test: cell-based. As to conditions: OPM-2 cells, CellTiter-Glo. In outline: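 OPM-2 myeloma cells, 3000/well in medium with 10% FBS, exposed to serially diluted compounds for 16 h at 37° C./5% CO2. Viability read by CellTiter-Glo luminescence; IC50 from 4-parameter logistic fit.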

[3] abbreviates: TR-FRET, 0.1 nM Mcl-1 (171-327), 0.05 nM biotin-Bim (51-76).
The mark [4] stands for this setting: Homo sapiens, OPM-2, 16 h, 16 h.
[5] abbreviates: cell free Mcl-1:Bim TR-FRET, recombinant human Mcl-1 (171-327).
The mark [6] stands for this setting: Homo sapiens, OPM-2, 16 h, 16 h incubation.

T1 sequence (Q07820 171-327): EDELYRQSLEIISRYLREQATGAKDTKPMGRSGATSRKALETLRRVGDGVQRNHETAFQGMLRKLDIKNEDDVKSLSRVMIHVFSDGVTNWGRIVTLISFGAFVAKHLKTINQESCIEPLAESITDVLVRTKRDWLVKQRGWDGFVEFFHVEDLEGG

As for `Cn1cnc(CO[C@@H]2/C=C/CCCS(=O)(=O)NC(=O)c3ccc4c(c3)N(C[C@@H]3CC[C@H]32)C[C@@]2(CCCc3cc(Cl)ccc32)CO4)n1` [Example 215, (1S,3′R,6′R,7′R,8′E)-6-chloro-7′-((1-methyl-1H-1,2,4-triazol-3-yl)methoxy)-3,4-dihydro-2H,15′H-spiro[naphthalene-1,22′-[20]oxa[13]thia[1,14]diazatetracyclo[14.7.2.0^3,6.0^19,24]pentacosa [8,16,18,24]tetraen]-15′-one 13′,13′-dioxide], the IC50 in test [1] (setting [3]) is 1.32 nM; in test [2] (setting [4]), 8740 nM.
For `C[C@@H]1/C=C/[C@H](O)[C@@H]2CC[C@H]2CN2C[C@@]3(CCCc4cc(Cl)ccc43)COc3ccc(cc32)C(=O)NS(=O)(=O)[C@@H](C)C1` (single isomer, unassigned) [Example 1022], the results for the IC50 in test [1] (setting [3]) and in test [2] (16 h incubation) were 23.5 nM and 22700 nM, respectively.
As to `CC[C@@H]1CC/C=C\C(=O)[C@@H]2CC[C@H]2CN2C[C@@]3(CCCc4cc(Cl)ccc43)COc3ccc(cc32)C(=O)NS1(=O)=O` (single isomer, unassigned) [Example 885], the IC50 turned out to be 18.3 nM in test [1] (setting [5]) and 616 nM in test [2] (setting [4]).
As for `COC(=O)CC[C@@H]1CC/C=C/[C@H](O)[C@@H]2CC[C@H]2CN2C[C@@]3(CCCc4cc(Cl)ccc43)COc3ccc(cc32)C(=O)NS1(=O)=O` [Example 616], the half-inhibitory concentration (IC50) in test [1] (setting [5]) turned out to be 0.178 nM; in test [2] (16 h) it was 482 nM.
Consider `C[C@@H]1[C@@H](C)C/C=C/[C@H](OCCNc2ccccn2)[C@@H]2CC[C@H]2CN2C[C@@]3(CCCc4cc(Cl)ccc43)COc3ccc(cc32)C(=O)NS1(=O)=O` [Example 12, (1S,3′R,6′R,7′S,8′E,11′S,12′R)-6-chloro-11′,12′-dimethyl-7′-(2-(2-pyridinylamino)ethoxy)-3,4-dihydro-2H,15′H-spiro[naphthalene-1,22′-[20]oxa[13]thia[1,14]diazatetracyclo[14.7.2.0˜3,6˜.0˜19,24˜]pentacosa[8,16,18,24]tetraen]-15′-one 13′,13′-dioxide], for which the IC50 worked out at 3.37 nM in test [1] (setting [3]) and 404 nM in test [2] (setting [4]).
In the case of `O=C(O)CCN1CC/C=C/[C@H](O)[C@@H]2CC[C@H]2CN2C[C@@]3(CCCc4cc(Cl)ccc43)COc3ccc(cc32)C(=O)NS1(=O)=O` [Example 33, 3-((1S,3′R,6′R,7′S,8′E)-6-chloro-7′-hydroxy-13′,13′-dioxido-15′-oxo-3,4-dihydro-2H,12′H-spiro[naphthalene-1,22′-[20]oxa[13]thia[1,12,14]triazatetracyclo[14.7.2.0^3,6.0^19,24]pentacosa[8,16,18,24]tetraen]-12′-yl)propanoic Acid], the IC50 stood at 0.168 nM in test [1] (setting [3]) and 8160 nM in test [2] (setting [4]).
Taken in the same sequence, the figures for `CONC(=O)CO[C@H]1/C=C/C[C@H](C)[C@@H](C)S(=O)(=O)NC(=O)c2ccc3c(c2)N(C[C@@H]2CC[C@H]21)C[C@@]1(CCCc2cc(Cl)ccc21)CO3` [Example 301, 2-(((1S,3′R,6′R,7′S,8′E,11′S,12′R)-6-chloro-11′,12′-dimethyl-13′,13′-dioxido-15′-oxo-3,4-dihydro-2H-spiro[naphthalene-1,22′-[20]oxa[13]thia[1,14]diazatetracyclo[14.7.2.0^3,6.0^19,24]pentacosa [8,16,18,24]tetraen]-7′-yl)oxy)-N-methoxyacetamide] were 0.245 nM and 844 nM.
For the compound `C[C@@H]1CS(=O)(=O)NC(=O)c2ccc3c(c2)N(C[C@@H]2CC[C@H]2[C@@H]2C[C@H](CCO2)O1)C[C@@]1(CCCc2cc(Cl)ccc21)CO3` (single isomer, unassigned) [Example 921], the IC50 in test [1] (setting [5]) came to 2.09 nM; in test [2] (16 h), 9160 nM.
For the compound `CO[C@H]1/C=C/C[C@H]2COCC[C@@H]2S(=O)(=O)NC(=O)c2ccc3c(c2)N(C[C@@H]2CC[C@H]21)C[C@@]1(CCCc2cc(Cl)ccc21)CO3` (single isomer, unassigned) [Example 321], the concentration for half-maximal inhibition (IC50) in test [1] (setting [3]) is 2.29 nM; in test [2] (16 h) it was 2180 nM.
Consider `CNC(=O)CO[C@H]1/C=C/C[C@H](C)[C@@H](C)S(=O)(=O)NC(=O)c2ccc3c(c2)N(C[C@@H]2CC[C@H]21)C[C@@]1(CCCc2cc(Cl)ccc21)CO3` [Example 294, 2-(((1S,3′R,6′R,7′S,8′E,11′S,12′R)-6-chloro-11′,12′-dimethyl-13′,13′-dioxido-15′-oxo-3,4-dihydro-2H-spiro[naphthalene-1,22′-[20]oxa[13]thia[1,14]diazatetracyclo[14.7.2.0^3,6.0^19,24]pentacosa [8,16,18,24]tetraen]-7′-yl)oxy)-N-methylacetamide], for which the values for the IC50 in test [1] (setting [3]) and in test [2] (setting [4]) were 0.255 nM and 410 nM, respectively.
`CC[C@H]1[C@H](OC)C/C=C/[C@H](O)[C@@H]2CC[C@H]2CN2C[C@@]3(CCCc4cc(Cl)ccc43)COc3ccc(cc32)C(=O)NS1(=O)=O` (single isomer, unassigned) [Example 459]: the half-maximal inhibitory concentration (IC50) in test [1] (setting [3]) was found to be 3.37 nM; in test [2] (16 h), 3300 nM.
On to `CO[C@H]1/C=C\CC[C@@H](C[C@@H](C)O)S(=O)(=O)NC(=O)c2ccc3c(c2)N(C[C@@H]2CC[C@H]21)C[C@@]1(CCCc2cc(Cl)ccc21)CO3` (single isomer, unassigned) [Example 543], for which the values for the IC50 in test [1] (setting [5]) and in test [2] (16 h) were 0.535 nM and 699 nM, respectively.
For the compound `O=C1NS(=O)(=O)CCCC[C@@H](O)[C@@H]2CC[C@H]2CN2C[C@@]3(CCCc4cc(Cl)ccc43)COc3ccc1cc32` [Example 222, (1S,3′R,6′R,7′R)-6-chloro-7′-hydroxy-3,4-dihydro-2H,14′H-spiro[naphthalene-1,21′-[19]oxa[12]thia[1,13]diazatetracyclo[13.7.2.0^3,6.0^18,23]tetracosa [15,17,23]trien]-14′-one 12′,12′-dioxide], the figures for the IC50 in test [1] (setting [3]) and in test [2] (setting [4]) were 9.08 nM and 30800 nM, respectively.
Take `COC(=O)CC1C(C)CC=CC(OC)C2CCC2CN2CC3(CCCc4cc(Cl)ccc43)COc3ccc(cc32)C(=O)NS1(=O)=O` (single isomer, unassigned) [Example 576]: the IC50 in test [1] (setting [5]) came to 0.382 nM; in test [2] (16 h), 220 nM.
For the compound `CO[C@H]1/C=C/[C@@H](C)C[C@@H](C)S(=O)(=O)NC(=O)c2ccc3c(c2)N(C[C@@H]2CC[C@H]21)C[C@@]1(CCCc2cc(Cl)ccc21)CO3` [Example 1019, (1S,3′R,6′R,7′S,8′E,10′S,12′R)-6-chloro-7′-methoxy-10′,12′-dimethyl-3,4-dihydro-2H,15′H-spiro[naphthalene-1,22′-[20]oxa[13]thia[1,14]diazatetracyclo[14.7.2.0^3,6.0^19,24]pentacosa [8,16,18,24]tetraen]-15′-one 13′,13′-dioxide], the 50% inhibitory concentration (IC50) in test [1] (setting [3]) was found to be 0.497 nM; in test [2] (setting [6]), 475 nM.
`C[C@@H]1[C@@H](C)CCCC[C@H](O)[C@@H]2CC[C@H]2CN2C[C@@]3(CCCc4cc(Cl)ccc43)COc3ccc(cc32)C(=O)NS1(=O)=O` (single isomer, unassigned) [Example 556]: the half-inhibitory concentration (IC50) in test [1] (setting [5]) was determined as 1.65 nM; in test [2] (16 h), 781 nM.
Turning to `C[C@@H]1[C@@H](C)C/C=C/[C@H](OCC(=O)N2CC(N3CCCC3)C2)[C@@H]2CC[C@H]2CN2C[C@@]3(CCCc4cc(Cl)ccc43)COc3ccc(cc32)C(=O)NS1(=O)=O` [Example 309, (1S,3′R,6′R,7′S,8′E,11′S,12′R)-6-chloro-11′,12′-dimethyl-7′-(2-oxo-2-(3-(1-pyrrolidinyl)-1-azetidinyl)ethoxy)-3,4-dihydro-2H,15′H-spiro[naphthalene-1,22′-[20]oxa[13]thia[1,14]diazatetracyclo[14.7.2.0^3,6.0^19,24]pentacosa [8,16,18,24]tetraen]-15′-one 13′,13′-dioxide], the IC50 in test [1] (setting [3]) came out at 0.0805 nM; in test [2] (setting [4]) it was 414 nM.
Take `CC(=O)N1C[C@H]2C/C=C/[C@H](O)[C@@H]3CC[C@H]3CN3C[C@@]4(CCCc5cc(Cl)ccc54)COc4ccc(cc43)C(=O)NS(=O)(=O)[C@@H]2C1` (single isomer, unassigned) [Example 338]: the values for the half-maximal inhibitory concentration (IC50) in test [1] (setting [3]) and in test [2] (16 h) were 0.241 nM and 5620 nM, respectively.
With `C[C@@H]1[C@@H](C)/C=C/[C@H](O)[C@@H]2CC[C@H]2CN2C[C@@]3(CCCc4cc(Cl)ccc43)COc3ccc(cc32)C(=O)NS(=O)(=O)[C@H]1C` (single isomer, unassigned) [Example 1043], the values for the IC50 in test [1] (setting [3]) and in test [2] (setting [6]) were 6.09 nM and 6740 nM, respectively.
For `C[C@@H]1CS(=O)(=O)NC(=O)c2ccc3c(c2)N(C[C@@H]2CC[C@H]2[C@@H]2C[C@H](CCO2)O1)C[C@@]1(CCCc2cc(Cl)ccc21)CO3` (single isomer, unassigned) [Example 922], the figures for the IC50 in test [1] (setting [5]) and in test [2] (16 h) were 0.975 nM and 2400 nM, respectively.
Turning to `C[C@H](O)C[C@@H]1CC/C=C\[C@H](O)[C@@H]2CC[C@H]2CN2C[C@@]3(CCCc4cc(Cl)ccc43)COc3ccc(cc32)C(=O)NS1(=O)=O` (single isomer, unassigned) [Example 547], the half-inhibitory concentration (IC50) in test [1] (setting [5]) came to 0.239 nM; in test [2] (16 h), 2220 nM.
With `CO[C@H]1/C=C/C[C@@H]2COC[C@H]2S(=O)(=O)NC(=O)c2ccc3c(c2)N(C[C@@H]2CC[C@H]21)C[C@@]1(CCCc2cc(Cl)ccc21)CO3` (single isomer, unassigned) [Example 1032], the IC50 in test [1] (setting [3]) is 0.422 nM; in test [2] (16 h incubation), 575 nM.
For the compound `COCC[C@@H]1/C=C/[C@@H]2CC[C@H]2CN2C[C@@]3(CCCc4cc(Cl)ccc43)COc3ccc(cc32)C(=O)NS(=O)(=O)[C@H](C)[C@@H](C)C1` [Example 114, (1S,3′R,6′S,7′E,9′R,11′S,12′R)-6-chloro-9′-(2-methoxyethyl)-11′,12′-dimethyl-3,4-dihydro-2H,15′H-spiro[naphthalene-1,22′-[20]oxa[13]thia[1,14]diazatetracyclo[14.7.2.0^3,6.0^19,24]pentacosa[7,16,18,24]tetraen]-15′-one 13′,13′-dioxide], the figures for the IC50 in test [1] (setting [3]) and in test [2] (setting [4]) were 3.6 nM and 3400 nM, respectively.
